The values that follow come from patent US12642857B2, “Degradation of AKT by conjugation of ATP-competitive AKT inhibitor GDC-0068 with E3 ligase ligands and methods of use” (DANA-FARBER CANCER INSTITUTE, INC., priority 2019, dated 2026).

The target of one experiment is T1, AKT3 (Homo sapiens, UniProt Q9Y243).
T1 construct: purchased Life Technologies (Invitrogen)
Description: Z'-LYTE assay (AKT binding assay), AKT3. The following applies: 10-point dose response, Km ATP, read-out: Biochemical Binding AKT3. The method, then:
(§1) Z′-LYTE assays (catalog number PV3193, Invitrogen™) were conducted for AKT1, AKT2, AKT3, PKG1, S6K1, PKN1, βMSK2, and Haspin at Life Technologies™ in a 10-point dose response using Km ATP concentrations. LanthaScreen™ assays were conducted for RET (V804M) in a 10-point dose response at Life Technologies™.

The target of another experiment is T2, AKT1 (Homo sapiens, UniProt P31749).
T2 construct: purchased Life Technologies (Invitrogen)
T2 sequence (P31749 whole entry): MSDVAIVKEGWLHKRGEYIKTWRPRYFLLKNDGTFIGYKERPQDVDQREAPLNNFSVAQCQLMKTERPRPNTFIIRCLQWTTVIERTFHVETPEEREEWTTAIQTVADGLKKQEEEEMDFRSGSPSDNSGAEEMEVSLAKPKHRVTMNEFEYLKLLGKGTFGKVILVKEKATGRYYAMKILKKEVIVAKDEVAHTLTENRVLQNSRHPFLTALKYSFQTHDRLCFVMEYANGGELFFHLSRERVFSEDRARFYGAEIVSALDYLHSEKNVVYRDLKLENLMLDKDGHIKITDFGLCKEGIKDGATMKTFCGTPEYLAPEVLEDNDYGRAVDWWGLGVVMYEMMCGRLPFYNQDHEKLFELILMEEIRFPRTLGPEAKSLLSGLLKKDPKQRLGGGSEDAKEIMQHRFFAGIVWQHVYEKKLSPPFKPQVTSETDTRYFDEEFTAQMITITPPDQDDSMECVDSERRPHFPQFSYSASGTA
Put plainly: Z'-LYTE assay (AKT binding assay), AKT1. As to conditions: 10-point dose response, Km ATP, read-out: Biochemical Binding AKT1. Here is the method: as §1

Experiment [1] has as its system AKT1, AKT2 and AKT3. Put plainly: Immunoblot of AKT isoform degradation in MDA-MB-468 cells. It is filed as cell-based, human. The following applies: 24-hour treatment. Here is the method: (§2) MDA-MB-468 (human breast cancer cell line) cells were maintained in RPMI 1640 (Wisent Bioproducts) supplemented with 10% FBS (Thermo Fisher Scientific) and MCF10A (human breast epithelial cell line) cells were maintained in Dulbecco's modified Eagle's medium (DMEM)/Ham's F12 (Wisent Bioproducts) supplemented with 5% equine serum (Fisher), insulin (10 μg/ml) (Life Technologies), hydrocortisone (500 ng/ml) (Sigma-Aldrich®), epidermal growth factor (20 ng/ml) (R&D Systems), and cholera toxin (100 ng/ml) (List Biological Lab). MDA-MB-468 and MCF10A cells were seeded at 250,000 cells/mL and 200,000 cells/mL, respectively. The following day cells were treated with inventive bifunctional compounds. After 24 hours, cells were washed with phosphate-buffered saline at 4° C. and lysed in radioimmunoprecipitation assay (RIPA) buffer (150 mM Tris-HCl, 150 mM NaCl, 0.5% (w/v) sodium deoxycholate, 1% (v/v) NP-40, pH 7.5) containing 0.1% (w/v) sodium dodecyl sulfate, 1 mM sodium pyrophosphate, 20 mM sodium fluoride, 50 nM calyculin, and 0.5% (v/v) protease inhibitor cocktail (Sigma-Aldrich®)). Cell extracts were precleared by centrifugation at 14,000 rpm for 10 minutes at 4° C. The Bio-Rad DC protein assay was used to assess protein concentration, and sample concentration was normalized using SDS sample buffer. […] Images were stored and analyzed using ImageStudio™ (LI-COR®) software. […]

The test system of experiment [2] is AKT1, AKT2 and AKT3. Description: Immunoblot of AKT isoform degradation in MCF10A cells. It is filed as cell-based, human. As to conditions: 24-hour treatment. The method, then:
as §2

In a further experiment the target is T3, AKT2 (Homo sapiens, UniProt P31751).
T3 construct: purchased Life Technologies (Invitrogen)
T3 sequence (P31751 whole entry): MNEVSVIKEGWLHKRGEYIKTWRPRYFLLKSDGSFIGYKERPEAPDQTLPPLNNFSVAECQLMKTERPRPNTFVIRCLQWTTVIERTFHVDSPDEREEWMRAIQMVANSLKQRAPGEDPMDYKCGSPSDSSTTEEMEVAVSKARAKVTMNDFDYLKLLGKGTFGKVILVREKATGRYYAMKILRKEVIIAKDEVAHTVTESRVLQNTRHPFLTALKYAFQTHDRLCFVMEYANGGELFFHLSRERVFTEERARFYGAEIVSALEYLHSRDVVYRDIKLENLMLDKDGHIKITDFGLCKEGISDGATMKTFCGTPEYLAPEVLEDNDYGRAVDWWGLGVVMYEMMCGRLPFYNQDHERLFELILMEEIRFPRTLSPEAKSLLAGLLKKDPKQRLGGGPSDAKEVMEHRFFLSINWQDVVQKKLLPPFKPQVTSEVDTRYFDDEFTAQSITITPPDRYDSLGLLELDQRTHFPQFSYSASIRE
Put plainly: Z'-LYTE assay (AKT binding assay), AKT2. As to conditions: 10-point dose response, Km ATP, read-out: Biochemical Binding AKT2. Here is the method:
as §1

Structures are written as SMILES. Entries after “also recorded” stand apart in the source; their conditions may differ.

T1 sequence (Q9Y243 whole entry): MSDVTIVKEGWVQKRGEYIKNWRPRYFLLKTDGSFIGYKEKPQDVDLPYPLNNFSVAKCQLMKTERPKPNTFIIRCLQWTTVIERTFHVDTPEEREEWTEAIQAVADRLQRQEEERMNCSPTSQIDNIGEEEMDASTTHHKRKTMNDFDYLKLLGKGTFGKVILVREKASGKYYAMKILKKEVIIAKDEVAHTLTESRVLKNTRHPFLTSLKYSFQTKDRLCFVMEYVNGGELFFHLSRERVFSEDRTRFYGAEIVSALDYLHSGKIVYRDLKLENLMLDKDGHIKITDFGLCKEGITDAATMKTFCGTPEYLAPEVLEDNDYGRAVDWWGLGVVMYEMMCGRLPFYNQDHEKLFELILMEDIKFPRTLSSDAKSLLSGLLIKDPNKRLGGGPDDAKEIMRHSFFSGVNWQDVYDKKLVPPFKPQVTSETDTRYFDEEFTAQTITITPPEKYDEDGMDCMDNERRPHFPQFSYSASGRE

For `Cc1ncsc1-c1ccc([C@H](C)NC(=O)[C@@H]2C[C@@H](O)CN2C(=O)[C@@H](NC(=O)CCOCCCNC[C@@H](C(=O)N2CCN(c3ncnc4c3[C@H](C)CC4)CC2)c2ccc(Cl)cc2)C(C)(C)C)cc1` [Compound 1, (2S,4R)-1-((S)-2-(3-(3-(((S)-2-(4-chlorophenyl)-3-(4-((R)-5-methyl-6,7-dihydro-5H-cyclopenta[d]pyrimidin-4-yl)piperazin-1-yl)-3-oxopropyl)amino)propoxy)propanamido)-3,3-dimethylbutanoyl)-4-hydroxy-N—((S)-1-(4-(4-methylthiazol-5-yl)phenyl)ethyl)pyrrolidine-2-carboxamide], the values for the IC50 on AKT3, at AKT1 and on AKT2 were 4.94 nM, 1.58 nM and 15.1 nM, respectively. Further, the “Degradation of AKT isoforms” value in the experiment with AKT1, AKT2 and AKT3 [1] is on record as “degraded in MDA-MB-468 cells in a dose-dependent manner; also recorded: degraded in MDA-MB-468 cells (FIG. 3)”; in the experiment on AKT1, AKT2 and AKT3 [2] it was “degraded in MCF10A cells in a dose-dependent manner”.

For `C[C@@H]1C[C@@H](O)c2ncnc(N3CCN(C(=O)[C@H](CNCCCCCCCCNC(=O)COc4cccc5c4C(=O)N(C4CCC(=O)NC4=O)C5=O)c4ccc(Cl)cc4)CC3)c21` (stereo partly drawn) [Compound 3, N-(8-(((S)-2-(4-chlorophenyl)-3-(4-((5R,7R)-7-hydroxy-5-methyl-6,7-dihydro-5H-cyclopenta[d]pyrimidin-4-yl)piperazin-1-yl)-3-oxopropyl)amino)octyl)-2-((2-(2,6-dioxopiperidin-3-yl)-1,3-dioxoisoindolin-4-yl)oxy)acetamide], the IC50 at AKT3 was determined as 1.23 nM; on AKT1, 1.03 nM; on AKT2 it was 4.04 nM. Also, the “Degradation of AKT isoforms” value is given as “degraded in MDA-MB-468 cells in a dose-dependent manner; also recorded: degraded in MDA-MB-468 cells (FIG. 3)” with AKT1, AKT2 and AKT3 [1]; “degraded in MCF10A cells in a dose-dependent manner” with AKT1, AKT2 and AKT3 [2].
